Assay results as given in US8562945B2, “Technetium- and rhenium-bis(heteroaryl) complexes and methods of use thereof” (Molecular Insight Pharmaceuticals, Inc., priority 2008, dated 2013).

Tests used:
[1] = Rat tissue distribution of 99mTc complexes of example ligands (Table 6); type: in vivo, Sprague-Dawley Rats; settings: 99mTc complex
Method: Rat Tissue Distribution Studies. The distribution and pharmacokinetics of selected ^99mTc-SAAC complexes were evaluated in normal male Sprague Dawley rats (180-200 grams) administered via the tail vein as a bolus injection (approximately 10 μCi/rat) in a constant volume of 0.1 ml. The animals (n=5 per time point) were euthanized by asphyxiation with carbon dioxide at 5, 30, 60, and 120 min post injection. Tissues (blood, heart, lungs, liver, spleen, kidneys, adrenals, stomach, intestines (with contents), testes, skeletal muscle, bone and brain) were dissected, excised, weighed wet, and counted in an automated γ-counter (LKB Model 1282, Wallac Oy, Finland). Tissue time-radioactivity levels expressed as percent injected dose per gram of tissue (% ID/g) was determined.
^99mTc Complexes of various example ligands in Sprague-Dawley Rats.

[2] = Determination of Log P values of 99mTc-SAAC complexes; type: physicochemical; settings: 99mTc complex; n-octanol / 25 mM pH=7.4 phosphate buffer
Method: Determination of Log P Values. The Log P values of the ^99mTc(I)-complexes were determined as follows. The ^99mTc-SAAC complexes were prepared and purified by RP-HPLC. The desired peak was collected and the sample was evaporated under a stream of nitrogen. The residue was dissolved in 25 μL of saline and placed in an equal volume of n-octanol (3 mL) and 25 mM pH=7.4 phosphate buffer (3 mL). The samples were mixed under vortex for 20 min, centrifuged at 8000 rpm for 5 min and three 100 μL aliquots were removed from both the aqueous and the organic layers for analysis on a gamma counter (Wallac 1282). Subsequently, 1 mL of the phosphate bufferTc-complex solution was removed and the process was repeated with fresh n-octanol, for a total number of six extractions to ensure full extraction of all the organic components. The partition coefficients were calculated using the equation: P=(activity concentration in n-octanol)/(activity concentration in aqueous layer). The Log P values reported were calculated from the average of the different measurements.

[3] = Complex stability: 99mTc cysteine and histidine challenge experiments; type: physicochemical; settings: for time stable to excess histidine and cysteine challenges: 99mTc-SAAC complex, 37° C.
Method: 3. Tc-99m labeling. [^99mTc(CO)3(H2O)3]^+ was heated with [8-{N,N-di(pyridyl-2-methyl)}α-(fmoc)lysine] (DpK) in 0.5 mL (1 mg/mL) of methanol at 100° C. for 30 minutes. […] Labeling yields of >50% RCY, were achievable at levels as low as 2 μg/mL.
Complex stability: ^99mTc challenge experiments. The complexes were analyzed by HPLC for stability against cysteine and histidine challenge over time.

[4] = biological target: CA-II (Homo sapiens (Human), UniProt P00918); experiment: Inhibition of carbonic anhydrase enzyme activity (4-nitrophenyl acetate hydrolysis), CA-II; type: biochemical; settings: purified human enzyme, pH 7.4, 25° C.
Method: (§1) Selective Inhibition of Carbonic Anhydrase Enzyme Activity. Compounds were tested for their ability to inhibit carbonic anhydrase isozymes II and IX in vitro. Purified human enzymes were from R&D Systems (Minneapolis, Minn.). The inhibition constants (Ki) for CA-II and CA-IX were determined by the method of Pocker and Stone. Initial rates of 4-nitrophenyl acetate hydrolysis catalyzed by the different carbonic anhydrase isozymes were measured spectrophotometrically at 400 nm. Solutions of substrate (1×10^−2 to 1×10^−6 M) were prepared in anhydrous acetonitrile. A molar extinction coefficient of 18,000 M^−1·cm^−1 was used for the 4-nitrophenolate formed by hydrolysis under the conditions of the experiment (9 mM Tris-HCl, 81 mM NaCl, pH 7.4, 25° C.). The enzyme concentrations were 100 nM for CA-IX and 30 nM for CA-II. Non-enzymatic hydrolysis rates, determined in the absence of added enzyme, were subtracted from the observed rates. […] Dilutions of inhibitor were added to enzyme solutions and preincubated for 10 min to allow for the formation of the E-I complex prior to the addition of substrate. Acetazolamide was included in all assays as positive controls.

[5] = biological target: CA-IX (Homo sapiens (Human), UniProt Q16790); experiment: Inhibition of carbonic anhydrase enzyme activity (4-nitrophenyl acetate hydrolysis), CA-IX; type: biochemical; settings: purified human enzyme, pH 7.4, 25° C.
Method: as §1

Question: For `N[C@@H](CCCCN(Cc1ccccn1)Cc1ccccn1)C(=O)O` [DpK, [ε-{N,N-di(pyridyl-2-methyl)}α-lysine], reference compound], which Blood tissue distribution ([1]; 5 min) is on record?
Answer: 0.58 ± 0.05 % ID/g

Question: And the Blood tissue distribution ([1]; 30 min)?
Answer: 0.07 ± 0.01 % ID/g

Question: What about the Blood tissue distribution ([1]; 60 min) of the same molecule?
Answer: 0.03 ± 0.01 % ID/g

Question: What about the Blood tissue distribution ([1]; 120 min) of the same molecule?
Answer: 0.01 ± 0.00 % ID/g

Question: And the GI tissue distribution ([1]; 5 min)?
Answer: 0.49 ± 0.08 % ID/g

Question: What about the GI tissue distribution ([1]; 30 min) of the same molecule?
Answer: 0.89 ± 0.07 % ID/g

Question: And the GI tissue distribution ([1]; 60 min)?
Answer: 1.46 ± 0.09 % ID/g

Question: What about the GI tissue distribution ([1]; 120 min) of the same molecule?
Answer: 2.73 ± 0.57 % ID/g

Question: And the Kidney tissue distribution ([1]; 5 min)?
Answer: 6.05 ± 1.03 % ID/g

Question: And the Kidney tissue distribution ([1]; 30 min)?
Answer: 4.94 ± 0.11 % ID/g

Question: And the Kidney tissue distribution ([1]; 60 min)?
Answer: 4.93 ± 0.43 % ID/g

Question: And the Kidney tissue distribution ([1]; 120 min)?
Answer: 3.89 ± .042 % ID/g

Question: What about the Liver tissue distribution ([1]; 5 min) of the same molecule?
Answer: 3.36 ± 0.44 % ID/g

Question: And the Liver tissue distribution ([1]; 30 min)?
Answer: 2.75 ± .011 % ID/g

Question: And the Liver tissue distribution ([1]; 60 min)?
Answer: 2.59 ± 0.08 % ID/g

Question: What about the Liver tissue distribution ([1]; 120 min) of the same molecule?
Answer: 2.20 ± 0.06 % ID/g

Question: And the “Sk. Muscle tissue distribution” value ([1]; 5 min)?
Answer: 0.18 ± 0.02 % ID/g

Question: What about the “Sk. Muscle tissue distribution” value ([1]; 30 min) of the same molecule?
Answer: 0.03 ± 0.00 % ID/g

Question: What about the “Sk. Muscle tissue distribution” value ([1]; 60 min) of the same molecule?
Answer: 0.03 ± 0.01 % ID/g

Question: And the “Sk. Muscle tissue distribution” value ([1]; 120 min)?
Answer: 0.01 ± 0.00 % ID/g

Question: And the “Log P” value [2]?
Answer: −1.89

Question: What about the “degradation by HPLC after cysteine or histidine challenge” value ([3]; 100 mM cysteine or histidine in PBS pH 7.2, 37° C., 18 h) of the same molecule?
Answer: no degradation

Question: What about the “time stable to excess histidine and cysteine challenges” value [3] of the same molecule?
Answer: more than 18 hours

Question: Which Blood tissue distribution ([1]; 5 min) does the source give for `N[C@@H](CCCCN(Cc1nccs1)Cc1nccs1)C(=O)O` [DtK, (dithiazole)lysine] here?
Answer: 3.32 ± 0.82 % ID/g

Question: And the Blood tissue distribution ([1]; 30 min)?
Answer: 2.33 ± 0.26 % ID/g

Question: What about the Blood tissue distribution ([1]; 60 min) of the same molecule?
Answer: 1.4 ± 0.07 % ID/g

Question: And the Blood tissue distribution ([1]; 120 min)?
Answer: 0.76 ± 0.12 % ID/g

Question: What about the GI tissue distribution ([1]; 5 min) of the same molecule?
Answer: 0.3 ± 0.15 % ID/g

Question: What about the GI tissue distribution ([1]; 30 min) of the same molecule?
Answer: 0.59 ± 0.13 % ID/g

Question: What about the GI tissue distribution ([1]; 60 min) of the same molecule?
Answer: 0.73 ± 0.29 % ID/g

Question: What about the GI tissue distribution ([1]; 120 min) of the same molecule?
Answer: 0.87 ± 0.2 % ID/g

Question: What about the Kidney tissue distribution ([1]; 5 min) of the same molecule?
Answer: 3.26 ± 1.04 % ID/g

Question: What about the Kidney tissue distribution ([1]; 30 min) of the same molecule?
Answer: 4.71 ± 0.41 % ID/g

Question: What about the Kidney tissue distribution ([1]; 60 min) of the same molecule?
Answer: 4.78 ± 0.14 % ID/g

Question: And the Kidney tissue distribution ([1]; 120 min)?
Answer: 4.83 ± 0.41 % ID/g

Question: What about the Liver tissue distribution ([1]; 5 min) of the same molecule?
Answer: 1.7 ± 0.42 % ID/g

Question: What about the Liver tissue distribution ([1]; 30 min) of the same molecule?
Answer: 1.93 ± 0.15 % ID/g

Question: And the Liver tissue distribution ([1]; 60 min)?
Answer: 2.05 ± .041 % ID/g

Question: And the Liver tissue distribution ([1]; 120 min)?
Answer: 2.61 ± 0.31 % ID/g

Question: And the “Sk. Muscle tissue distribution” value ([1]; 5 min)?
Answer: 0.16 ± 0.05 % ID/g

Question: And the “Sk. Muscle tissue distribution” value ([1]; 30 min)?
Answer: 0.16 ± 0.01 % ID/g

Question: What about the “Sk. Muscle tissue distribution” value ([1]; 60 min) of the same molecule?
Answer: 0.15 ± 0.02 % ID/g

Question: And the “Sk. Muscle tissue distribution” value ([1]; 120 min)?
Answer: 0.12 ± 0.01 % ID/g

Question: And the “Log P” value [2]?
Answer: −2.40

Question: And the “time stable to excess histidine and cysteine challenges” value [3]?
Answer: more than 18 hours

Question: Which IC50 [4] does the source give for “[Re(CO)3][2-((pyridin-2-ylmethyl)(4-sulfamoylphenethyl)amino)acetic acid] [Compound 23-Re]” here?
Answer: 0.652 µM

Question: What about the IC50 [5] of the same molecule?
Answer: 0.564 µM
